Source: patent US7419669B2, “Peptide epitopes common to antigens of the same multigene family” (Institut Gustave Roussy, priority 2002, dated 2008)
Entries after “also recorded” stand apart in the source; their conditions may differ. Where no end group is shown, it is not given here.

Assays:
[1] = target: T1, HLA-A*0201/peptide complexes (Homo sapiens, UniProt P04439, D140Y/D185E/D98H/E176V/E277Q/G131W/G231S/I119V/I121R/I166T/I218V/L300P/L318F/N151K/N90K/P208A/P217A/Q86G/Q94H/R138H/R169H/T345S); experiment: Stability of peptide/HLA-A*0201 complexes on T2 cells (DC50); type: binding
T1 construct: prevent the expression at their surface of newly synthesized HLA-A*0201 molecules; endogenous in cells; host or cells: human T2 cells (TAP-deficient)
Method: (§1) The affinity of the selected peptides for HLA-A*0201 was defined by two parameters: the relative affinity (RA); which reflects the ability of the peptides to bind to HLA-A*0201, and the rate of dissociation of the HLA-A*0201/peptide complexes (DC50), which reflects their stability. The peptides with high affinity (RA<5 and DC50>2 hours) are potentially immunogenic, unlike the peptides with low affinity (RA>5 and DC50<2 hours).
T2 cells (10^6/ml) are incubated overnight at 37° C. with 100 μM of each test peptide in serum-free RPMI 1640 medium supplemented with 100 ng/ml of human β2-microglobulin. Next, they are washed four times in order to remove the free peptides, incubated with Brefeldin A (SIGMA; 10 μg/ml) for one hour in order to prevent the expression at their surface of newly synthesized HLA-A*0201 molecules, washed and incubated at 37° C. for 0, 2, 4, 6 or 8 hours. For each incubation time, the cells are then labeled, as indicated above, with the BB7.2 antibody, and analyzed by flow cytometry in order to evaluate the amount of peptide/HLA-A*0201 complex present at their surface. This amount is evaluated by means of the formula: (mean fluorescence of the T2 cells preincubated with the peptide−mean fluorescence of the T2 cells treated under similar conditions in the absence of peptide). […]

HHD transgenic mice = experiment: Induction of specific CTLs in HHD transgenic mice by immunization with variant MAGE-A peptides; 51Cr cytotoxicity on peptide-loaded RMAS-HHD targets; type: in vivo; settings: for CTL response generated by immunization with the variant peptide: HHD mice, 100 μg s.c. in Freund's incomplete adjuvant, RMAS-HHD targets, effector/target 40/1
Method: The immunogenicity of the variant peptides p174Y1V10, p262L2 and p248V9 was evaluated by generation of CTLs on HHD transgenic mice (PASCOLO et al., J. Exp. Med., 185, 2043, 1997). These mice are β2m−/−, D^b−/− and express an HLA-A*0201 single chain made up of the α1 and α2 domains of HLA-A*0201 and the α3 and intracellular domains of D^b, linked via its N-terminal to the C-terminal of human β2-microglobulin, via a peptide of 15 amino acids.
The HHD mice are given a subcutaneous injection at the base of the tail with 100 μg of each variant peptide to be tested, emulsified in Freund's incomplete adjuvant, in the presence of 140 μg of a T-helper epitope derived from the HBV “core” antigen (128-140, sequence […]).
After 11 days, spleen cells taken from the mice (5×10^7 cells in 10 ml) are stimulated in vitro with the test peptide (10 μM). On the 6th day of culture, the populations which respond are tested in order to determine a specific cytotoxicity. The cells which respond are restimulated in vitro at one-week intervals with 2×10^7 irradiated (3000 rads) HHD spleen cells and 1 to 0.1 μM of peptide in the presence of 50 IU/ml of recombinant IL2 (Proleukin, Chiron Corp).
Cytotoxicity assays are carried out 6 days after the final stimulation.
RMAS-HHD cells are used as targets to study the cytotoxicity. The cells are obtained by transfection of murine RMAS cells with the HHD construct as described by PASCOLO et al. (J. Exp. Med., 185, 2043, 1997).
These target cells are labeled with 100 μCi of ^51Cr for 90 minutes, and then washed three times and plated out in round-bottomed 96-well plates (3×10^3 cells/well in 100 μl of RPMI 1640+3% of fetal calf serum). They are loaded with various concentrations of test peptide (variant, native peptide, or irrelevant control peptide), at 37° C. for 90 minutes.
Next, 100 μl of the effector cells (effector cell/target cell ratio=40/1) are added to the wells and the plates are incubated at 37° C. for 4 hours. After incubation, 100 μl of supernatant are collected and the radioactivity is measured in a γ-counter.
The percentage of specific lysis is calculated by means of the formula: [(experimental ^51Cr release−spontaneous ^51Cr release)/(maximum ^51Cr release−spontaneous ^51Cr release)]×100. In all the experiments, the spontaneous release is less than 20% of the maximum release induced with 3N HCl.

HLA-A*0201 = target: T2, HLA-A*0201 (Homo sapiens, UniProt P04439, D140Y/D185E/D98H/E176V/E277Q/G131W/G231S/I119V/I121R/I166T/I218V/L300P/L318F/N151K/N90K/P208A/P217A/Q86G/Q94H/R138H/R169H/T345S); experiment: Relative affinity (RA) of peptides for HLA-A*0201 on T2 cells, flow cytometry with BB7.2; type: binding; settings: low affinity = RA>5 and DC50<2 hours
T2 construct: prevent the expression at their surface of newly synthesized HLA-A*0201 molecules; endogenous in cells; host or cells: human T2 cells (TAP-deficient)
Method: as §1
Human T2 cells (FIRAT et al., Eur. J. Immunol., 29, 3112, 1999) (3×10^5 cells/ml), which are deficient in TAP transporters, are incubated at 37° C. for 16 hours with various concentrations (100 μM, 10 μM, 1 μM, 0.1 μM) of each test peptide in serum-free RPMI 1640 medium supplemented with 100 ng/ml of human β2-microglobulin. Next, they are washed twice and labeled with the monoclonal antibody BB7.2 (PARHAM et al., Hum. Immunol., 3, 4, 277-299, 1981) which is specific for the HLA-A*0201 molecule, and then with a goat anti-mouse Ig antibody coupled to fluorescein isothiocyanate (FITC).
The cells are then analyzed by flow cytometry. For each concentration of peptide, the specific HLA-A*0201 fluorescence is calculated as a percentage of the fluorescence obtained with 100 μM of a reference peptide (HIVpol 589; […] (SEQ ID No: 1)). The relative affinity (RA) is defined as the ratio of the concentration of each peptide that induces 20% of the fluorescence obtained with 100 μM of the reference peptide, to the concentration of the reference peptide that induces 20% of the fluorescence obtained with 100 μM of said reference peptide. The lower the relative affinity, the stronger the binding of the peptide to HLA-A*0201. The mean RA for each peptide is determined from at least three independent experiments. In all the experiments, 20% of the maximum fluorescence was obtained for 1 to 3 μM of the reference peptide.
The relative affinity (RA) of the selected variant peptides for HLA-A*0201 was measured as described in example 1.

[2] = system: CD8+ cells from normal donors; experiment: Induction of specific human CTLs in vitro from PBMCs of normal donors with p248V9, intracellular IFNγ production; type: cell-based
Method: The ability of p248V9 to induce CTLs in vitro using peripheral blood mononuclear cells (PBMCs) from normal donors was tested as follows.
The PBMCs are obtained, from blood samples taken by leukocytapheresis on normal donors, after centrifugation at 2000 rpm for 20 min on a Ficoll/Hypaque (Amersham) gradient. After 3 washes in 0.9% NaCl, they are resuspended in complete medium (RPMI 1640 supplemented with 10% of heat-inactivated human AB serum, 40 μg/ml of gentamicin (Panpharma) and […] of L-glutamine (Gibco)), and incubated at 37° C. for 2 hours. After incubation, the non-adherent cells are removed. The adherent cells are differentiated into dendritic cells by culturing in a Teflon bag in a proportion of 3×10^6 cells/ml in complete medium supplemented with 500 IU/ml of GM-CSF (R & D Systems) and 500 IU/ml of IL-4 (R & D Systems). On the seventh day, maturing agents (100 ng/ml of polyI:C and 2 μg/ml of anti-CD40 antibody) are added to the culture. After 24 hours, the mature dendritic cells are loaded with the peptide p248V9 by incubation for 2 hours with 10 μM of peptide in the presence of 5 μg/ml of β2-microglobulin, and then irradiated at 3500 rads; they are then washed in order to remove the free peptide. CD8+ cells are isolated from the non-adherent cells by means of microbeads coupled to an anti-CD8 antibody (Miltenyi Biotec).
2×10^5 CD8+ cells are stimulated with 2×10^4 dendritic cells loaded with the peptide, in complete medium supplemented with 1000 IU/ml of IL-6 and 5 IU/ml of IL-12 in a final volume of 100 μl/well in a 96-well plate. From the seventh day, the cultures are stimulated in vitro each week with the dendritic cells loaded with the peptide, in the presence of 20 IU/ml of IL-2 and 10 ng/ml of IL-7. After the third restimulation, the CD8+ cells are collected and stimulated with EBV-transformed HLA-A*0201 allogenic B cells, in a 1/2 ratio, in the presence of 10 μM of peptide, for 16 hours.
The IFNγ-producing CD8+ cells are purified using a commercial kit (IFNγ secretion assay-cell enrichment and detection kit, Miltenyi Biotech). The cells thus purified are cultured for one week in complete medium supplemented with 20 IU/ml of IL-2 and 10 ng/ml of IL-7.
The response of these CD8+ cells to T2 cells loaded with one of the peptides p248V9, p248G9 or p248D9, or with a irrelevant peptide (HIVgag76), or to HLA-A*0201+MAGE-A+ tumor cells (M44 and M113) or HLA-A*0201+MAGE-A^− tumor cells (Caco-2), is evaluated by assaying the intracellular IFNγ production.
The CD8+ cells are incubated with the cells of the tumor line tested, in the presence of 20 μg/ml of Brefeldine-A (Sigma). […]
The cells are then analyzed by flow cytometry (FACSCalibur™ (Becton Dickinson) and CellQuest™ software).

[3] = system: HLA-A*0201 human tumor cells expressing MAGE-A antigens (M44, M113, OBR); experiment: Stimulation of CTL248 line with HLA-A*0201 human tumor cells expressing MAGE-A antigens, TNF-α secretion; type: cell-based
Method: The following HLA-A*0201 tumor lines were used: • lines expressing at least one MAGE-A antigen: M44 and M113 (melanoma); OBR (bladder cancer); • lines not expressing MAGE-A antigens: MCF-7 (breast cancer) and Caco-2 (colon cancer).
The CTL248 line was stimulated with each of the tumor lines mentioned above.
The stimulation is evaluated by detecting the secretion of TNF-α as described above.
In order to confirm that the tumor cell recognition is indeed HLA-A*0201-restricted, the CTL248 cells were stimulated with M44 cells preincubated for one hour with an anti-HLA-A*0201 monoclonal antibody (BB7.2) or with an irrelevant antibody (anti-CD19), and the production of TNFα was measured as described above.

[4] = system: COS-7 cells cotransfected with HHD construct and MAGE-A cDNA; experiment: Stimulation of CTL248 line (induced with p248V9) with transfected COS-7 cells expressing MAGE-A antigens, TNF-α secretion; type: cell-based, monkey
Method: A CTL line called CTL248 was established from the spleen cells of an HDD mouse immunized with the peptide p248V9, by repeated stimulation in vitro with decreasing concentrations of p248G9 (10 μM-1 μM). This line is maintained in culture in the presence of 1 μM of the peptide p248G9.
The cells of the CTL248 line are stimulated, for each of the MAGE-A1, -A2, -A3, -A4, -A6, -A10 and -A12 antigens, with monkey cos-7 cells cotransfected with the HAD construct (PASCOLO et al., mentioned above) and a plasmid containing the cDNA for said antigen. By way of negative controls, COS-7 cells transfected either with the HHD construct alone or with the cDNA for the MAGE-A antigen concerned are used. The stimulation of the CTLs is evaluated by measuring their secretion of TNF-α. […]
After incubation for 6 hours, the supernatant is removed and brought into contact with WEHI164 clone 13 mouse fibrosarcoma cells (3×10^4 per well), which are characterized by a high sensitivity to TNF-α-induced apoptosis. In order to quantify the amount of TNF in the culture supernatants, a standard range of TNF-α (concentrations of 0 to 10^4 pg/ml) is used in parallel. After incubation for 16 hours at 37° C., the viability of the WEHI-164 clone 13 cells is determined by means of an MTT colorimetric assay (SIGMA) (ESPEVIK and NISSEN MEYER, J. Immunol. Methods, 95, 99, 1986).

stability of the complex formed with HLA-A*0201 (in words) [1] | Sequence | DC50 (time required for loss of 50% of HLA-A*0201/peptide complexes) ([1]; T2 cells loaded with 100 μM peptide, 37° C., 0-8 hours) | recognition of RMAS-HHD targets loaded with the native peptide by CTLs induced with the corresponding variant (HHD transgenic mice; native peptide loaded on targets) | affinity for HLA-A*0201 (in words) (HLA-A*0201) | induction of human CTLs by the peptide ([2]; PBMCs from normal donors, peptide-loaded dendritic cells, intracellular IFNγ) | response of p248V9-induced human CD8+ cells to T2 cells loaded with the peptide ([2]; intracellular IFNγ production) | recognition of naturally processed MAGE-A epitope by CTLs induced with the peptide (HLA-A*0201 human tumor lines) [3] | recognition of naturally processed MAGE-A epitope by CTLs induced with the peptide (COS-7 transfectants) [4] | CTL response generated by immunization with the variant peptide (HHD transgenic mice)
 | YEFLWGPRA (listed as Homo sapiens) [p262] | <2 h | not | low affinity |  |  |  |  | 
 | YLEYRQVPV (not fully specified) [p248V9] |  |  |  | induces human CTLs capable of also recognizing the corresponding native peptides, and capable of recognizing tumor cells expressing varied MAGE-A antigens | a response of the CD8+ cells | recognize a naturally processed epitope common to the MAGE-A1, -A2, -A3, -A4, -A6, -A10 and -A12 antigens | recognize a naturally processed epitope common to the MAGE-A1, -A2, -A3, -A4, -A6, -A10 and -A12 antigens | induces a CTL response directed not only against this variant but also against the two native peptides p248G9 and p248D9; also recorded: generates CTLs which kill the RMAS-HHD targets loaded with the variant peptide, or with the corresponding native peptide
appears to be insufficient | YLGLSYDGLV (not fully specified) [p174Y1V10] |  |  |  |  |  |  |  | not capable of generating a CTL response
